Experimental data: PubChem BioAssay AID1963425 (Molecular Pharmacology Branch, DTP, NCI, 2024)

System: 323965-272-R-J2-PDC complex spheroid growth, % test/control
Test: Anticancer human tumor 323965-272-R-J2-PDC patient-derived pancreatic carcinoma cell line growth inhibition [Asc]
Settings: for IC50: curve of first compound; for viability, T/C: stronger effect = lower value
Outline: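 Stromal components (HUVEC and hMSC) are co-assembled with the cancer cells into multicellular spheroids. Drugs are then added singly or paired, at concentrations falling by half-log increments from a clinically achievable maximum, capped at 10 microM without known Cmax.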
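Also: compound exposure lasted 7 days starting three days after spheroid seeding.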
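For viability, T/C in this document: 100% = DMSO vehicle control wells with viability set relative to vehicle.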

SMILES: Cc1nc(N2CCC3(CC2)COC(C)C3N)c(CO)nc1Sc1ccnc(N)c1Cl (configuration not stated) + Cc1c(S(C)(=O)=O)c(-c2cc(F)cc(N3CCN(c4ccc(NS(=O)(=O)c5ccc(NC(CCN6CCC(C(=O)OCCCP(=O)(O)O)CC6)CSc6ccccc6)c(S(=O)(=O)C(F)(F)F)c5)cc4)CC3)c2)c(-c2ccc(Cl)cc2)n1C(C)C
- IC50 (second compound 0.0316 µM): 1610 nM
- IC50 (second compound 0.1 µM): 981 nM
- IC50 (second compound 0.316 µM): 809 nM
- IC50 (second compound 1 µM): 281 nM
- IC50 (second compound 3.16 µM): 85.9 nM
- IC50 (second compound 10 µM): 59.2 nM
- viability, T/C (second compound 0.0316 µM, first compound 0.00949 µM): 92.9%
- viability, T/C (second compound 0.0316 µM, first compound 0.03 µM): 87.9%
- viability, T/C (second compound 0.0316 µM, first compound 0.0949 µM): 79.6%
- viability, T/C (second compound 0.0316 µM, first compound 0.3 µM): 67.8%
- viability, T/C (second compound 0.0316 µM, first compound 0.949 µM): 54.9%
- viability, T/C (second compound 0.0316 µM, first compound 3 µM): 44.2%
- viability, T/C (second compound 0.1 µM, first compound 0.00949 µM): 105%
- viability, T/C (second compound 0.1 µM, first compound 0.03 µM): 96.2%
- viability, T/C (second compound 0.1 µM, first compound 0.0949 µM): 70.6%
- viability, T/C (second compound 0.1 µM, first compound 0.3 µM): 69%
- viability, T/C (second compound 0.1 µM, first compound 0.949 µM): 49.1%
- viability, T/C (second compound 0.1 µM, first compound 3 µM): 37.8%
- viability, T/C (second compound 0.316 µM, first compound 0.00949 µM): 92.2%
- viability, T/C (second compound 0.316 µM, first compound 0.03 µM): 87.2%
- viability, T/C (second compound 0.316 µM, first compound 0.0949 µM): 76.1%
- viability, T/C (second compound 0.316 µM, first compound 0.3 µM): 62.2%
- viability, T/C (second compound 0.316 µM, first compound 0.949 µM): 48.5%
- viability, T/C (second compound 0.316 µM, first compound 3 µM): 35.9%
- viability, T/C (second compound 1 µM, first compound 0.00949 µM): 81%
- viability, T/C (second compound 1 µM, first compound 0.03 µM): 78%
- viability, T/C (second compound 1 µM, first compound 0.0949 µM): 64.8%
- viability, T/C (second compound 1 µM, first compound 0.3 µM): 48.9%
- viability, T/C (second compound 1 µM, first compound 0.949 µM): 36.1%
- viability, T/C (second compound 1 µM, first compound 3 µM): 28.1%
- viability, T/C (second compound 3.16 µM, first compound 0.00949 µM): 72.8%
- viability, T/C (second compound 3.16 µM, first compound 0.03 µM): 64.3%
- viability, T/C (second compound 3.16 µM, first compound 0.0949 µM): 45.8%
- viability, T/C (second compound 3.16 µM, first compound 0.3 µM): 37.6%
- viability, T/C (second compound 3.16 µM, first compound 0.949 µM): 29.6%
- viability, T/C (second compound 3.16 µM, first compound 3 µM): 19.6%
- viability, T/C (second compound 10 µM, first compound 0.00949 µM): 73.3%
- viability, T/C (second compound 10 µM, first compound 0.03 µM): 59.3%
- viability, T/C (second compound 10 µM, first compound 0.0949 µM): 41.7%
- viability, T/C (second compound 10 µM, first compound 0.3 µM): 34.5%
- viability, T/C (second compound 10 µM, first compound 0.949 µM): 23.2%
- viability, T/C (second compound 10 µM, first compound 3 µM): 15%
